Tests used:
[1] = system: SK-GT-2 (Gastric Carcinoma); assay: combination Emax (second highest fraction inhibited in the dose matrix, 72 h); higher = more inhibition; extreme values may be limits of the assay
Summary of the method: (§1)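 After 24 hours at 37°C and 5% CO2 in 1536-well plates, cells in DMEM/F12 or RPMI plus 10% FBS received two-drug dose matrices for 72 hours. Viability came from CellTiter-Glo 2.0 luminescence and was scaled as inhibition, anchored at 0 by vehicle wells and at 1 by blank wells. Combination Emax is taken as the second-highest inhibition in the matrix, and Bliss excess as the observed combination effect less EA + EB − EA·EB, with EA and EB the single-agent effects.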

[2] = system: SK-GT-2 (Gastric Carcinoma); assay: Bliss excess, mean over the matrix (fraction); higher = more synergy
Summary of the method: as §1

[3] = system: COR-L279 (Small Cell Lung Carcinoma); assay: as above
Summary of the method: as §1

[4] = system: SU-DHL-5 (B-Cell Non-Hodgkin's Lymphoma); assay: as above
Summary of the method: as §1

[5] = system: SUP-B15 (B-Lymphoblastic Leukemia); assay: as above
Summary of the method: as §1

[6] = system: MN-60 (B-Lymphoblastic Leukemia); assay: as above
Summary of the method: as §1

[7] = system: KYSE-270 (Esophageal Squamous Cell Carcinoma); assay: as above
Summary of the method: as §1

[8] = system: NCI-H526 (Small Cell Lung Carcinoma); assay: as above
Summary of the method: as §1

[9] = system: ESO51 (Esophageal Adenocarcinoma); assay: as above
Summary of the method: as §1

[10] = system: T-T (Esophageal Squamous Cell Carcinoma); assay: as above
Summary of the method: as §1

[11] = system: KU812 (Chronic Myelogenous Leukemia); assay: as above
Summary of the method: as §1

[12] = system: JHH-4 (Hepatocellular Carcinoma); assay: as above
Summary of the method: as §1

[13] = system: CHSA8926 (Chondrosarcoma); assay: as above
Summary of the method: as §1

NCI-H2731 (Mesothelioma) = assay: as above
Summary of the method: as §1

[14] = system: H9 (T-Cell Non-Hodgkin's Lymphoma); assay: as above
Summary of the method: as §1

[15] = system: VMRC-RCZ (Kidney Carcinoma); assay: as above
Summary of the method: as §1

[16] = system: CW-2 (Colorectal Carcinoma); assay: as above
Summary of the method: as §1

[17] = system: IM-95 (Gastric Carcinoma); assay: as above
Summary of the method: as §1

[18] = system: SK-GT-4 (Esophageal Adenocarcinoma); assay: as above
Summary of the method: as §1

G-361 (Melanoma) = assay: as above
Summary of the method: as §1
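For Bliss excess, mean over the matrix in this document: after 72 h of two-drug dosing.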

SMILES	combination Emax [1]	Bliss excess [2]	Bliss excess [3]	Bliss excess [4]	Bliss excess [5]	Bliss excess [6]	Bliss excess [7]	Bliss excess [8]	Bliss excess [9]	Bliss excess [10]	Bliss excess [11]	Bliss excess [12]	Bliss excess [13]	Bliss excess (NCI-H2731 (Mesothelioma))	Bliss excess [14]	Bliss excess [15]	Bliss excess [16]	Bliss excess [17]	Bliss excess [18]	Bliss excess (G-361 (Melanoma))
Cc1cc2ncnn2cc1Nc1ncc2c(n1)n(C1CCOCC1)c(=O)n2C [AZD7648] + CCN(CCO)CCCOc1ccc2c(Nc3cc(CC(=O)Nc4cccc(F)c4)[nH]n3)ncnc2c1 [AZD2811] (first compound max 10 µM, 7x7, partner max 1 µM)	0.198	0.0137	-0.0803	-0.0094	-0.0667	-0.0061	0.0332	0.0568	-0.0098	0.0089	0.0578	0.0136	-0.0331	-0.0077	-0.0378	0.0038	-0.0089	0.0835	-0.0041	0.0453
Cc1c2c(nn1C)CSCc1cc(n(C)n1)CSc1cc(c3ccccc3c1)OCCCc1c(C(=O)O)n(C)c3c-2c(Cl)ccc13 [AZD5991] + CN(C)CCCOc1ccc(-c2ccc3ncc4c(c3c2)n(C2CCOCC2)c(=O)n4C)cn1 [AZD0156] (first compound max 1 µM, 7x7, partner max 1 µM)	0.182	0.0228	-0.0051	-0.0041	-0.0117	0.0047	0.0347	0.0054	0.0193	-0.0025	-0.0788	-0.0063	0.0117	-0.0444	0.0314	-0.018	0.0041	-0.0198	-0.031	0.0371
COc1cccc2c1C(=O)c1c(O)c3c(c(O)c1C2=O)C[C@@](O)(C(=O)CO)C[C@@H]3O[C@H]1C[C@H](N)[C@H](O)[C@H](C)O1 [Doxorubicin] + Cc1cc2ncnn2cc1Nc1ncc2c(n1)n(C1CCOCC1)c(=O)n2C [AZD7648] (first compound max 1 µM, 7x7, partner max 10 µM)	0.406	-0.0051	0.0715	0.111	0.153	0.0759	0.0494	0.0586	0.0291	0.0318	0.0256	0.0376	-0.0053	0.0506	0.0887	-0.024	-0.0002	0.016	-0.0081	0.0791
CC1(C)CCC(CN2CCN(c3ccc(C(=O)NS(=O)(=O)c4ccc(NCC5CCOCC5)c([N+](=O)[O-])c4)c(Oc4cnc5[nH]ccc5c4)c3)CC2)=C(c2ccc(Cl)cc2)C1 [Venetoclax] + C=CCn1c(=O)c2cnc(Nc3ccc(N4CCN(C)CC4)cc3)nc2n1-c1cccc(C(C)(C)O)n1 [AZD1775] (first compound max 1 µM, partner max 1 µM)	0.597	0.0014	-0.0349	-0.0814	0.0509	-0.0285	0.0742	-0.0183	-0.0404	0.0832	0.0294	-0.0538	-0.0333	-0.0295	-0.0295	0.0418	-0.0091	0.0197	0.0384	-0.0214
Cc1c2c(nn1C)CSCc1cc(n(C)n1)CSc1cc(c3ccccc3c1)OCCCc1c(C(=O)O)n(C)c3c-2c(Cl)ccc13 [AZD5991] + CCN(CCO)CCCOc1ccc2c(Nc3cc(CC(=O)Nc4cccc(F)c4)[nH]n3)ncnc2c1 [AZD2811] (first compound max 1 µM, 7x7, partner max 1 µM)	0.204	0.039	0.0162	-0.06	0.0125	0.0086	0.0998	0.123	0.0031	0.0614	-0.0519	0.0134	0.0305	-0.0023	-0.0072	0.016	0.0059	0.0605	-0.0303	0.0481
CS(=O)(=O)CCNCc1ccc(-c2ccc3ncnc(Nc4ccc(OCc5cccc(F)c5)c(Cl)c4)c3c2)o1 [Lapatinib] + C[C@@H](Oc1cc(-c2cnn(C3CCNCC3)c2)cnc1N)c1c(Cl)ccc(F)c1Cl [Crizotinib] (first compound max 10 µM, 7x7, partner max 10 µM)	0.995	-0.0154	-0.06	-0.0186	0.024	-0.0288	-0.0054	0.0069	0.0885	-0.0172	-0.0598	0.0041	-0.0231	-0.0456	-0.0249	-0.0291	-0.0146	0.0467	-0.0211	-0.0416

— the supplement of paper PMC11061612
